# Laboratory results: ChEMBL document CHEMBL2440076, “New triarylpyrazoles as broad-spectrum anticancer agents: design, synthesis, and biological evaluation” (Eur J Med Chem, 2013)
# Legend:
# Type in all cases: functional
# MOLT-4 = assay: Growth inhibition of human MOLT4 cells assessed as cell growth at 5X10'-7 M after 48 hrs by sulforhodamine B assay; settings: MOLT-4, 48 h, read-out: Activity
# SF-539 = assay: Growth inhibition of human SF539 cells assessed as cell growth at 5X10'-8 M after 48 hrs by sulforhodamine B assay; settings: SF-539, 48 h, read-out: Activity
# SK-MEL-2 [1] = assay: Growth inhibition of human SK-MEL-2 cells assessed as cell growth at 5X10'-7 M after 48 hrs by sulforhodamine B assay; settings: SK-MEL-2, 48 h, read-out: Activity
# SR [2] = assay: Growth inhibition of human SR cells assessed as cell growth at 5X10'-7 M after 48 hrs by sulforhodamine B assay; settings: read-out: Activity
# NCI-H522 [3] = assay: Growth inhibition of human NCI-H522 cells assessed as cell growth at 5X10'-5 M after 48 hrs by sulforhodamine B assay; settings: NCI-H522, 48 h, read-out: Activity
# UACC-62 = assay: Growth inhibition of human UACC62 cells assessed as cell growth at 5X10'-6 M after 48 hrs by sulforhodamine B assay; settings: UACC-62, 48 h, read-out: Activity
# COLO 205 = assay: Growth inhibition of human COLO205 cells assessed as cell growth at 5X10'-8 M after 48 hrs by sulforhodamine B assay; settings: COLO 205, 48 h, read-out: Activity
# HCT-116 = assay: Growth inhibition of human HCT116 cells assessed as cell growth at 5X10'-6 M after 48 hrs by sulforhodamine B assay; settings: HCT-116, 48 h, read-out: Activity
# 786-0 = assay: Growth inhibition of human 786-0 cells assessed as cell growth at 5X10'-8 M after 48 hrs by sulforhodamine B assay; settings: 786-0, 48 h, read-out: Activity
# SN12C = assay: Growth inhibition of human SN12C cells assessed as cell growth at 5X10'-8 M after 48 hrs by sulforhodamine B assay; settings: read-out: Activity
# IGROV-1 = assay: Growth inhibition of human IGROV1 cells assessed as cell growth at 5X10'-8 M after 48 hrs by sulforhodamine B assay; settings: IGROV-1, 48 h, read-out: Activity
# MDA-MB-435 [4] = assay: Growth inhibition of human MDA-MB-435 cells assessed as cell growth at 5X10'-7 M after 48 hrs by sulforhodamine B assay; settings: MDA-MB-435, 48 h, read-out: Activity
# HL-60(TB) [5] = assay: Growth inhibition of human HL-60(TB) cells assessed as cell growth at 5X10'-8 M after 48 hrs by sulforhodamine B assay; settings: HL-60, 48 h, read-out: Activity
# CAKI-1 = assay: Growth inhibition of human CAKI-1 cells assessed as cell growth at 5X10'-9 M after 48 hrs by sulforhodamine B assay; settings: CAKI-1, 48 h, read-out: Activity
# [6] = Growth inhibition of human NCI-ADR-RES cells assessed as cell growth at 5X10'-8 M after 48 hrs by sulforhodamine B assay; settings: read-out: Activity
# KM12 [7] = assay: Growth inhibition of human KM12 cells assessed as cell growth at 5X10'-7 M after 48 hrs by sulforhodamine B assay; settings: KM12, 48 h, read-out: Activity
# DU-145 = assay: Growth inhibition of human DU145 cells assessed as cell growth at 5X10'-5 M after 48 hrs by sulforhodamine B assay; settings: DU-145, 48 h, read-out: Activity
# T47D [8] = assay: Growth inhibition of human T47D cells assessed as cell growth at 5X10'-9 M after 48 hrs by sulforhodamine B assay; settings: read-out: Activity
# NCI-H460 = assay: Growth inhibition of human NCI-H460 cells assessed as cell growth at 5X10'-9 M after 48 hrs by sulforhodamine B assay; settings: NCI-H460, 48 h, read-out: Activity
# HOP-62 = assay: Growth inhibition of human HOP62 cells assessed as cell growth at 5X10'-8 M after 48 hrs by sulforhodamine B assay; settings: HOP-62, 48 h, read-out: Activity
# MDA-MB-435 [9] = assay: Growth inhibition of human MDA-MB-435 cells assessed as cell growth at 5X10'-9 M after 48 hrs by sulforhodamine B assay; settings: MDA-MB-435, 48 h, read-out: Activity
# A549 = assay: Growth inhibition of human A549/ATCC cells assessed as cell growth at 5X10'-7 M after 48 hrs by sulforhodamine B assay; settings: A549, 48 h, read-out: Activity
# SW-620 [10] = assay: Growth inhibition of human SW620 cells assessed as cell growth at 5X10'-8 M after 48 hrs by sulforhodamine B assay; settings: SW-620, 48 h, read-out: Activity
# HOP-92 = assay: Growth inhibition of human HOP92 cells assessed as cell growth at 5X10'-5 M after 48 hrs by sulforhodamine B assay; settings: HOP-92, 48 h, read-out: Activity
# SW-620 [11] = assay: Growth inhibition of human SW620 cells assessed as cell growth at 5X10'-9 M after 48 hrs by sulforhodamine B assay; settings: SW-620, 48 h, read-out: Activity
# MCF7 = assay: Growth inhibition of human MCF7 cells assessed as cell growth at 5X10'-6 M after 48 hrs by sulforhodamine B assay; settings: MCF7, 48 h, read-out: Activity
# KM12 [12] = assay: Growth inhibition of human KM12 cells assessed as cell growth at 5X10'-5 M after 48 hrs by sulforhodamine B assay; settings: KM12, 48 h, read-out: Activity
# OVCAR-8 = assay: Growth inhibition of human OVCAR8 cells assessed as cell growth at 5X10'-7 M after 48 hrs by sulforhodamine B assay; settings: OVCAR-8, 48 h, read-out: Activity
# NCI-H522 [13] = assay: Growth inhibition of human NCI-H522 cells assessed as cell growth at 5X10'-6 M after 48 hrs by sulforhodamine B assay; settings: NCI-H522, 48 h, read-out: Activity
# UACC-257 = assay: Growth inhibition of human UACC257 cells assessed as cell growth at 5X10'-9 M after 48 hrs by sulforhodamine B assay; settings: UACC-257, 48 h, read-out: Activity
# PC-3 = assay: Growth inhibition of human PC3 cells assessed as cell growth at 5X10'-9 M after 48 hrs by sulforhodamine B assay; settings: PC-3, 48 h, read-out: Activity
# SF-295 = assay: Growth inhibition of human SF295 cells assessed as cell growth at 5X10'-9 M after 48 hrs by sulforhodamine B assay; settings: SF-295, 48 h, read-out: Activity
# HL-60(TB) [14] = assay: Growth inhibition of human HL-60(TB) cells assessed as cell growth at 5X10'-5 M after 48 hrs by sulforhodamine B assay; settings: HL-60, 48 h, read-out: Activity
# T47D [15] = assay: Growth inhibition of human T47D cells assessed as cell growth at 5X10'-6 M after 48 hrs by sulforhodamine B assay; settings: read-out: Activity
# Malme-3M = assay: Growth inhibition of human MALME-3M cells assessed as cell growth at 5X10'-7 M after 48 hrs by sulforhodamine B assay; settings: read-out: Activity
# SR [16] = assay: Growth inhibition of human SR cells assessed as cell growth at 5X10'-8 M after 48 hrs by sulforhodamine B assay; settings: read-out: Activity
# SK-MEL-2 [17] = assay: Growth inhibition of human SK-MEL-2 cells assessed as cell growth at 5X10'-9 M after 48 hrs by sulforhodamine B assay; settings: SK-MEL-2, 48 h, read-out: Activity
smiles,measurement,setting,value
COc1cc(-c2nn(-c3cccc(NC(=O)c4cccc(C(F)(F)F)c4)c3)cc2-c2ccncc2)ccc1Cl,growth at 0.5 µM,MOLT-4,91%
same,growth at 0.05 µM,SF-539,94%
same,growth at 0.5 µM,SK-MEL-2 [1],91%
same,growth at 0.5 µM,SR [2],65%
same,growth at 50 µM,NCI-H522 [3],-24%
same,growth at 5 µM,UACC-62,27%
same,growth at 0.05 µM,COLO 205,101%
same,growth at 5 µM,HCT-116,12%
same,growth at 0.05 µM,786-0,98%
same,growth at 0.05 µM,SN12C,99%
same,growth at 0.05 µM,IGROV-1,95%
same,growth at 0.5 µM,MDA-MB-435 [4],69%
same,growth at 0.05 µM,HL-60(TB) [5],92%
same,growth at 0.005 µM,CAKI-1,94%
same,growth at 0.05 µM,[6],96%
same,growth at 0.5 µM,KM12 [7],89%
same,growth at 50 µM,DU-145,-4%
same,growth at 0.005 µM,T47D [8],92%
same,growth at 0.005 µM,NCI-H460,100%
same,growth at 0.05 µM,HOP-62,97%
same,growth at 0.005 µM,MDA-MB-435 [9],96%
same,growth at 0.5 µM,A549,91%
same,growth at 0.05 µM,SW-620 [10],98%
same,growth at 50 µM,HOP-92,-22%
same,growth at 0.005 µM,SW-620 [11],99%
same,growth at 5 µM,MCF7,13%
same,growth at 50 µM,KM12 [12],7%
same,growth at 0.5 µM,OVCAR-8,91%
same,growth at 5 µM,NCI-H522 [13],-10%
same,growth at 0.005 µM,UACC-257,105%
same,growth at 0.005 µM,PC-3,98%
same,growth at 0.005 µM,SF-295,94%
same,growth at 50 µM,HL-60(TB) [14],5%
same,growth at 5 µM,T47D [15],36%
same,growth at 0.5 µM,Malme-3M,89%
same,growth at 0.05 µM,SR [16],98%
same,growth at 0.005 µM,SK-MEL-2 [17],96%
